Key:
[1] = test system: ES-2 cells; experiment: Cell growth suppression experiment (ES-2); type: cell-based; settings: Homo sapiens, 48 h, cultured 2 days, CellTiter-Glo 3D
Method: ES-2 cells were obtained from the American Type Culture Collection (ATCC). These cells were cultured at 37° C. in the presence of 5% CO2 in a McCoy's 5a medium containing 10% fetal bovine serum and 1% penicillin/streptomycin.
500 cells were seeded for each well in a 384-well plate, and the evaluated compound was added to the final DMSO concentration of 0.1% to culture the cells for 2 days. After completion of the culture, the cell viability rate was calculated using CellTiter-Glo (registered trademark) 3D Reagent (Promega, G968B).

[2] = biological target: hERG current (Homo sapiens (Human), UniProt Q12809); experiment: cell-based
hERG current, sequence (Q12809 whole entry): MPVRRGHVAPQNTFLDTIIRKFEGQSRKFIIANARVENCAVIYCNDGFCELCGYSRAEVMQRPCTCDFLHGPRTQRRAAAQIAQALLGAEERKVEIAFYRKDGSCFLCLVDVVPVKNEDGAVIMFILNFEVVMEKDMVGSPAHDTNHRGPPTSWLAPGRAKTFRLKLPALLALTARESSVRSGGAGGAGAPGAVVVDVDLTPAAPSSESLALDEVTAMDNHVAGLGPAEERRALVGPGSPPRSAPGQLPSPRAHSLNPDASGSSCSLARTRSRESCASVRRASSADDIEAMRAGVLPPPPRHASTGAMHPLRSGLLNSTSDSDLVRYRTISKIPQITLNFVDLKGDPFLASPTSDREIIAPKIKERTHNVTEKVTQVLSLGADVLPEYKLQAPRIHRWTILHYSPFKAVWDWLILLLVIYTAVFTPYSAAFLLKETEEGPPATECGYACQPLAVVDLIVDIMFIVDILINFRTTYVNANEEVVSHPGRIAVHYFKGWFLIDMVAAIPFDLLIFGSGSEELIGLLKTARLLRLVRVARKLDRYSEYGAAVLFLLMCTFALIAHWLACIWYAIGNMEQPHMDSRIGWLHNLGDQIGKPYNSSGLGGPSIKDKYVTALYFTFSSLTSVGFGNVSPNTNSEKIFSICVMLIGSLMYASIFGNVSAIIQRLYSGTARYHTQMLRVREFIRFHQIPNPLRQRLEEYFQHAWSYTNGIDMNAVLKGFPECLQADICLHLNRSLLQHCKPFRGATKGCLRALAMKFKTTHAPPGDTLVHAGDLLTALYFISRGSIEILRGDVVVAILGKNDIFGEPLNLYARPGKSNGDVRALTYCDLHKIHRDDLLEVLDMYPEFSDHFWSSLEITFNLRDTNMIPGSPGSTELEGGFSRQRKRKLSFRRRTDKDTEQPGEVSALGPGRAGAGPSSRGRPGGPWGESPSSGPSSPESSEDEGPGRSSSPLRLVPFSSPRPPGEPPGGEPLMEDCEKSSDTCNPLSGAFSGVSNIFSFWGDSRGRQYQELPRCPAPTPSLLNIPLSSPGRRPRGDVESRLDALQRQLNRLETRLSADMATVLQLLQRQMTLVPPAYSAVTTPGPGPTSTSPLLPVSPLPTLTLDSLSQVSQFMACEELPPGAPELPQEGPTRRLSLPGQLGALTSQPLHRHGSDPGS

[3] = biological target: CHK1 kinase (Homo sapiens (Human), UniProt O14757)
CHK1 kinase, sequence (O14757 whole entry): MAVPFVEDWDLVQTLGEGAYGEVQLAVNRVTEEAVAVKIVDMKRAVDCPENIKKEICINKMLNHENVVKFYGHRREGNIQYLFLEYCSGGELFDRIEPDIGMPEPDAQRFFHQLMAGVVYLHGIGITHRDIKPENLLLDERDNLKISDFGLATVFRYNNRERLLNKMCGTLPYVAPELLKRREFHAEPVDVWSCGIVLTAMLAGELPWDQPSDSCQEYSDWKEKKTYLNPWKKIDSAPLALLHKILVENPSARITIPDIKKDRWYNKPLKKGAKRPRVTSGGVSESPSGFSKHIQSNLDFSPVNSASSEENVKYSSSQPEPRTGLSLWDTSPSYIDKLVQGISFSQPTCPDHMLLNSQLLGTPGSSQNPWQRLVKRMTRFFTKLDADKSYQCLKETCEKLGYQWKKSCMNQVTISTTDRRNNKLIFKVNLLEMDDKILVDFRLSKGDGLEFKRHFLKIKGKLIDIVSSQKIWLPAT

Row | SMILES | IC50 [1] [nM] | IC50 [2] [nM] | IC50 [3] [nM]
1 | N#Cc1cnc(Nc2cc(-c3c(OCCCN)ccc4c3OCC4)[nH]n2)cn1 [Example 3, 5-({5-[6-(3-aminopropoxy)-2,3-dihydro-1-benzofuran-7-yl]-1H-pyrazol-3-yl}amino)pyrazine-2-carbonitrile] | 4 | 530 | 
2 | C=C(CN)COc1cnc2c(c1-c1cc(Nc3cnc(C#N)cn3)n[nH]1)OCC2 [Example 31, 5-{[5-(6-{[2-(aminomethyl)prop-2-en-1-yl]oxy)-2,3-dihydrofuro[3,2-b]pyridin-7-yl)-1H-pyrazol-3-yl]amino}pyrazine-2-carbonitrile] | 13.8 |  | 0.31
3 | Cc1nc2ccc(OCCCN)c(-c3cc(Nc4cnc(C#N)cn4)n[nH]3)c2o1 [Example 16, 5-({5-[6-(3-aminopropoxy)-2-methyl-1,3-benzoxazol-7-yl]-1H-pyrazol-3-yl}amino)pyrazine-2-carbonitrile] | 489 |  | 0.45
4 | CC1(COc2cnc3c(c2-c2cc(Nc4cnc(C#N)cn4)n[nH]2)OCC3)CNC1 [Example 15, 5-[(5-{6-[(3-methylazetidin-3-yl)methoxy]-2,3-dihydrofuro[3,2-b]pyridin-7-yl}-1H-pyrazol-3-yl)amino]pyrazine-2-carbonitrile] | 7.2 |  | 0.23
5 | N#Cc1cnc(Nc2cc(-c3c(OCCCN)cnc4ccnn34)[nH]n2)cn1 [Example 7, 5-({5-[6-(3-aminopropoxy)pyrazolo[1,5-a]pyrimidin-7-yl]-1H-pyrazol-3-yl}amino)pyrazine-2-carbonitrile] | 469 |  | 1.71
6 | N#Cc1cnc(Nc2cc(-c3c(O[C@@H]4CCC[C@H]4CN)cnc4cccnc34)[nH]n2)cn1 [Example 34, 5-{[5-(3-{[(1R,2S)-2-(aminomethyl)cyclopentyl]oxy}-1,5-naphthyridin-4-yl)-1H-pyrazol-3-yl]amino}pyrazine-2-carbonitrile] | 5.5 |  | 0.75
7 | CC1(COc2ccc3ccnn3c2-c2cc(Nc3cnc(C#N)cn3)n[nH]2)CNC1 [Example 18, 5-[(5-{6-[(3-methylazetidin-3-yl)methoxy]pyrazolo[1,5-a]pyridin-7-yl)-1H-pyrazol-3-yl)amino]pyrazine-2-carbonitrile] | 4.7 |  | 0.34
8 | NCCCOc1cnc2c(c1-c1cc(Nc3cnc(Cl)cn3)n[nH]1)OCC2 [Example 32, N-{5-[6-(3-aminopropoxy)-2,3-dihydrofuro[3,2-b]pyridin-7-yl]-1H-pyrazol-3-yl}-5-chloropyrazin-2-amine] | 21.5 |  | 0.33
9 | N#Cc1cnc(Nc2cc(-c3c(O[C@@H]4CCC[C@H](N)C4)cnc4c3OCC4)[nH]n2)cn1 [Example 24, 5-{[5-(6-{[(1R,3S)-3-aminocyclohexyl]oxy}-2,3-dihydrofuro[3,2-b]pyridin-7-yl)-1H-pyrazol-3-yl]amino}pyrazine-2-carbonitrile] | 12.7 | 4800 | 0.31
10 | N#Cc1cnc(Nc2cc(-c3c(OCC4(CN)CC4)ccc4ccoc34)[nH]n2)cn1 [Example 19, 5-{[5-(6-{[1-(aminomethyl)cyclopropyl]methoxy}-1-benzofuran-7-yl}-1H-pyrazol-3-yl]amino}pyrazine-2-carbonitrile] | 4.6 |  | 0.26
11 | C[C@@H](Oc1cnc2c(c1-c1cc(Nc3cnc(C#N)cn3)n[nH]1)OCC2)C1CNC1 [Example 25, 5-[(5-{6-[(1R)-1-(azetidin-3-yl)ethoxy]-2,3-dihydrofuro[3,2-b]pyridin-7-yl}-1H-pyrazol-3-yl)amino]pyrazine-2-carbonitrile] | 6.4 |  | 0.43
12 | N#Cc1cnc(Nc2cc(-c3c(OCC4(CN)CC4)ccc4ccnn34)[nH]n2)cn1 [Example 17, 5-{[5-(6-{[1-(aminomethyl)cyclopropyl]methoxy)pyrazolo[1,5-a]pyridin-7-yl)-1H-pyrazol-3-yl]amino}pyrazine-2-carbonitrile] | 3.7 |  | 0.27
13 | CNCCCOc1cnc2c(c1-c1cc(Nc3cnc(C#N)cn3)n[nH]1)OCC2 [Example 27, 5-[(5-{6-[3-(methylamino)propoxy]-2,3-dihydrofuro[3,2-b]pyridin-7-yl}-1H-pyrazol-3-yl)amino]pyrazine-2-carbonitrile] | 8.5 |  | 0.22
14 | COC(=O)c1cnc(Nc2cc(-c3c(OCCCN)cnc4c3OCC4)[nH]n2)cn1 [Example 33, methyl 5-({5-[6-(3-aminopropoxy)-2,3-dihydrofuro[3,2-b]pyridin-7-yl]-1H-pyrazol-3-yl}amino)pyrazine-2-carboxylate] | > 1000 |  | 9.28
15 | N#Cc1cnc(Nc2cc(-c3c(OCC4(CN)CC4)cnc4cccnc34)[nH]n2)cn1 [Example 10, 5-{[5-(3-{[1-(aminomethyl)cyclopropyl]methoxy}-1,5-naphthyridin-4-yl)-1H-pyrazol-3-yl]amino}pyrazine-2-carbonitrile] | 6.6 |  | 0.34
16 | N#Cc1cnc(Nc2cc(-c3c(OC[C@@H]4CNCCO4)cnc4cccnc34)[nH]n2)cn1 [Example 12] | 23.2 | 1000 | 0.38
17 | N#Cc1cnc(Nc2cc(-c3c(O[C@H]4C[C@H](N)[C@H]5C[C@H]54)cnc4c3OCC4)[nH]n2)cn1 [Example 29, 5-{[5-(6-{[(1R,2S,4S,5S)-4-aminobicyclo[3.1.0]hexan-2-yl]oxy)-2,3-dihydrofuro[3,2-b]pyridin-7-yl)-1H-pyrazol-3-yl]amino}pyrazine-2-carbonitrile] | 29.4 | > 10000 | 0.33
18 | N#Cc1cnc(Nc2cc(-c3c(OCCCN)cnc4c3OCC4)[nH]n2)cn1 [Example 13, 5-({5-[6-(3-aminopropoxy)-2,3-dihydrofuro[3,2-b]pyridin-7-yl]-1H-pyrazol-3-yl}amino)pyrazine-2-carbonitrile] | 20 |  | 0.42
19 | N#Cc1cnc(Nc2cc(-c3c(OCC4(CN)CC4)ccc4c3OCC4)[nH]n2)cn1 [Example 4, 5-{[5-(6-{[1-(aminomethyl)cyclopropyl]methoxy}-2,3-dihydro-1-benzofuran-7-yl)-1H-pyrazol-3-yl]amino}pyrazine-2-carbonitrile] | 9.1 | 300 | 0.27
20 | N#Cc1cnc(Nc2cc(-c3c(OCC4(C(F)F)CNC4)cnc4c3OCC4)[nH]n2)cn1 [Example 22, 5-{[5-(6-{[3-(difluoromethyl)azetidin-3-yl]methoxy}-2,3-dihydrofuro[3,2-b]pyridin-7-yl)-1H-pyrazol-3-yl]amino}pyrazine-2-carbonitrile] | 13.7 |  | 0.39
21 | N#Cc1cnc(Nc2cc(-c3c(OCCCN)ccc4cccnc34)[nH]n2)cn1 [Example 1, 5-({5-[7-(3-aminopropoxy)quinolin-8-yl]-1H-pyrazol-3-yl}amino)pyrazine-2-carbonitrile] | 4.9 |  | 0.37
